For one assay, the target named is T1, HA1 adenosine receptor (Homo sapiens, UniProt P30542).
T1 sequence (P30542 1-326): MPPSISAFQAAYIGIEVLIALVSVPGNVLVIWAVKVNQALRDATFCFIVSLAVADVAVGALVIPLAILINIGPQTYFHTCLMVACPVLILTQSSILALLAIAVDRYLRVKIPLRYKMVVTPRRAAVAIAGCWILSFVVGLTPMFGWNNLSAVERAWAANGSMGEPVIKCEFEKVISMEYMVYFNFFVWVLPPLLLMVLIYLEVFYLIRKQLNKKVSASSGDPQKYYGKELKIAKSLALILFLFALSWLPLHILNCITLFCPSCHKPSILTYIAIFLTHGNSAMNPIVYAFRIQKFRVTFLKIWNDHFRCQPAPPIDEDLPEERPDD
The assay can be described thus: Human adenosine A1 receptor affinity (Ki hA1). It is filed as binding.

The target of assay [1] is T2, human adenosine A2A receptor (Homo sapiens, UniProt P29274).
T2 construct: expressed in transfected cells; host or cells: CHO cells, Semliki Forest virus expression system; membrane preparation
Put plainly: Human adenosine A2A receptor [3H]-SCH-58261 binding assay. On the procedure:
Human Adenosine A2A Receptor
The human adenosine A2A receptor was recombinantly expressed in chinese hamster ovary (CHO) cells using the semliki forest virus expression system. Cells were harvested, washed twice by centrifugation, homogenized and again washed by centrifugation. The final washed membrane pellet was suspended in a Tris (50 mM) buffer containing 120 mM NaCl, 5 mM KCl, 2 mM CaCl2 and 10 MM MgCl2 (pH 7.4) (buffer A). […] Compounds were tested at 10 concentrations from 10 μM-0.3 nM. All assays were conducted in duplicate and repeated at least two times. Assay plates were incubated for 1 hour at room temperature before centrifugation and then bound ligand determined using a Packard Topcount scintillation counter. IC50 values were calculated using a non-linear curve fitting program and Ki values calculated using the Cheng-Prussoff equation.

[2] abbreviates: affinity to human adenosine A1 receptor.
The mark [3] stands for this setting: affinity to human adenosine A2A receptor, read-out: Ki HA2A.
Where [4] appears, read: calculated ratio of the affinity to the HA1 receptor to the HA2a receptor.

Here are results for 29 molecules from patent US6506772B1, “Substituted [1,2,4]triazolo[1,5a]pyridine derivatives with activity as adenosine receptor ligands” (Hoffmann-La Roche Inc., priority 2000, dated 2003).

Read-outs that look alike come from different tables or passages of the source.

T2 sequence (P29274 whole entry): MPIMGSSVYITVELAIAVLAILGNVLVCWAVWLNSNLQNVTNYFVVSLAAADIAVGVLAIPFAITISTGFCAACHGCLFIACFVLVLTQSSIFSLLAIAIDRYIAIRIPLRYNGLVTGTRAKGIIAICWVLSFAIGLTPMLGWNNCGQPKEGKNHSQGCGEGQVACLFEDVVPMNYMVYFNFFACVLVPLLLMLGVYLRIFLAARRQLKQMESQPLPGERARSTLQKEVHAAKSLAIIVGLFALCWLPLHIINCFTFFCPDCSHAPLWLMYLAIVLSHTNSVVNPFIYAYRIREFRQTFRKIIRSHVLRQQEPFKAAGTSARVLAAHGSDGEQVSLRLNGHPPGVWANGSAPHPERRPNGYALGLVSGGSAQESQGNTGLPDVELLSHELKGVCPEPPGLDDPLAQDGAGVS

Broadly, the Ki is the equilibrium dissociation constant of an inhibitor or competing ligand from its target. `CCN(CC)C(=O)c1cc(N)n2nc(-c3ccc(Br)o3)nc2c1` [Example 21, 5-Amino-2-(5-bromo-furan-2-yl)-[1,2,4]triazolo[1,5-a]pyridine-7-carboxylic acid diethylamide] came in with a Ki at HA1 adenosine receptor (setting [2]) of 232 nM.
With `Nc1cc(C(=O)N2CCCC2)cc2nc(-c3ccc(Br)o3)nn12` [Example 22, [5-Amino-2-(5-bromo-furan-2-yl)-[1,2,4]triazolo[1,5-a]pyridin-7-yl]-pyrrolidin-1-yl-methanone], affinity at HA1 adenosine receptor (setting [2]) was put at a Ki of 548 nM.
Still for that read-out and setting: then `Nc1cc(C(=O)N2CCCCC2)cc2nc(-c3ccc(Br)o3)nn12` [Example 23, [5-Amino-2-(5-bromo-furan-2-yl)-[1,2,4]triazolo[1,5-a]pyridin-7-yl]-piperidin-1-yl-methanone], with 276 nM.
On to `CCN(C(=O)c1cc(N)n2nc(-c3ccc(C)s3)nc2c1)C1CCCCC1` [Example 24, 5-Amino-2-(5-methyl-thiophen-2-yl)-[1,2,4]triazolo[1,5-a]pyridine-7-carboxylic acid cyclohexyl-ethyl-amide], for which the figures for the inhibition constant Ki (in assay [1] (setting [3]); on HA1 adenosine receptor (setting [2])) were 8.9 nM and 247 nM, respectively. Further, the “selectivity (A1/A2a)” value in assay [1] (setting [4]) is 27.8.
In the case of `Nc1cc(C(=O)N2CCCC2)cc2nc(-c3nccs3)nn12` [Example 25, (5-Amino-2-thiazol-2-yl-[1,2,4]triazolo[1,5-a]pyridin-7-yl)-pyrrolidin-1-yl-methanone], the figures for the Ki (in assay [1] (setting [3]); on HA1 adenosine receptor (setting [2])) were 50.4 nM and 3100 nM, respectively. The “selectivity (A1/A2a)” value in assay [1] (setting [4]) is on record as 61.5.
For the molecule `CC(C)N(Cc1ccccc1)C(=O)c1cc(N)n2nc(-c3ccc(Br)o3)nc2c1` [Example 26, 5-Amino-2-(5-bromo-furan-2-yl)-[1,2,4]triazolo[1,5-a]pyridine-7-carboxylic acid benzyl-isopropyl-amide], the inhibition constant (Ki) in assay [1] (setting [3]) stood at 2.3 nM; at HA1 adenosine receptor (setting [2]), 30.1 nM. In assay [1] (setting [4]), the “selectivity (A1/A2a)” value is listed as 13.0.
Molecule `Cc1ccc(-c2nc3cc(C(=O)N4CCCC4)cc(N)n3n2)o1` [Example 27, [5-Amino-2-(5-methyl-furan-2-yl)-[1,2,4]triazolo[1,5-a]pyridin-7-yl]-pyrrolidin-1-yl-methanone] displayed a Ki at HA1 adenosine receptor (setting [2]) of 940 nM.
As to `Cc1ccc(-c2nc3cc(C(=O)N4CCCCC4)cc(N)n3n2)o1` [Example 28, [5-Amino-2-(5-methyl-furan-2-yl)-[1,2,4]triazolo[1,5-a]pyridin-7-yl]-piperidin-1-yl-methanone], at HA1 adenosine receptor (setting [2]), the Ki is 696 nM.
As for `CCN(Cc1ccccc1)C(=O)c1cc(N)n2nc(-c3ccccn3)nc2c1` [Example 29, 5-Amino-2-pyridin-2-yl-[1,2,4]triazolo[1,5-a]pyridine-7-carboxylic acid benzyl-ethyl-amide], the Ki turned out to be 15.9 nM in assay [1] (setting [3]) and 244 nM on HA1 adenosine receptor (setting [2]). Besides, in assay [1] (setting [4]), the “selectivity (A1/A2a)” value is recorded as 15.3.
For `Nc1cc(C(=O)N2CCc3ccccc3C2)cc2nc(-c3ccccn3)nn12` [Example 30, (5-Amino-2-pyridin-2-yl-[1,2,4]triazolo[1,5-a]pyridin-7-yl)-(3,4-dihydro-1H-isoquinolin-2-yl)-methanone] the same measures were 212 nM, 2140 nM and 10.1.
For `CCN(C(=O)c1cc(N)n2nc(-c3ccccn3)nc2c1)C1CCCCC1` [Example 31, 5-Amino-2-pyridin-2-yl-[1,2,4]triazolo[1,5-a]pyridine-7-carboxylic acid cyclohexyl-ethyl-amide] the same measures were 49.6 nM, 1130 nM and 22.7.
For the molecule `CN(Cc1ccccc1)C(=O)c1cc(N)n2nc(-c3ccccn3)nc2c1` [Example 32, 5-Amino-2-pyridin-2-yl-[1,2,4]triazolo[1,5-a]pyridine-7-carboxylic acid benzyl-methyl-amide], the results for the Ki (in assay [1] (setting [3]); on HA1 adenosine receptor (setting [2])) were 28.6 nM and 288 nM, respectively. Besides, the “selectivity (A1/A2a)” value in assay [1] (setting [4]) was 10.1.
In the same order, the values of `CN(C(=O)c1cc(N)n2nc(-c3ccccn3)nc2c1)C1CCCCC1` [Example 33, 5-Amino-2-pyridin-2-yl-[1,2,4]triazolo[1,5-a]pyridine-7-carboxylic acid cyclohexyl-methyl-amide] are 87 nM, 1170 nM and 13.5.
The molecule `Nc1cc(C(=O)N2CCCC2)cc2nc(-c3ccco3)nn12` [Example 106, (5-Amino-2-furan-2-yl-[1,2,4]triazolo[1,5-a]pyridin-7-yl)-pyrrolidin-1-yl-methanone] showed a Ki on HA1 adenosine receptor (setting [2]) of 1730 nM.
Same read-out and setting: the value for `Nc1cc(C(=O)N2CCCCC2)cc2nc(-c3ccco3)nn12` [Example 107, (5-Amino-2-furan-2-yl-[1,2,4]triazolo[1,5-a]pyridin-7-yl)-piperidin-1-yl-methanone] was 2720 nM; that for `Nc1cc(C(=O)N2CCCC2)cc2nc(-c3cccs3)nn12` [Example 128, (5-Amino-2-thiophen-2-yl-[1,2,4]triazolo[1,5-a]pyridin-7-yl)-pyrrolidin-1-yl-methanone] was 1480 nM; that for `CCCN(C)C(=O)c1cc(N)n2nc(-c3ccc(Br)o3)nc2c1` [Example 268, 5-Amino-2-(5-bromo-furan-2-yl)-[1,2,4]triazolo[1,5-a]pyridine-7-carboxylic acid methyl-propyl-amide] was 275 nM.
In turn, `CC1CCCN1C(=O)c1cc(N)n2nc(-c3ccc(Br)o3)nc2c1` (stereo not shown) [Example 270, [5-Amino-2-(5-bromo-furan-2-yl)-[1,2,4]triazolo[1,5-a]pyridin-7-yl]-(2-methyl-pyrrolidin-1-yl)-methanone] registered a Ki on HA1 adenosine receptor (setting [2]) of 286 nM.
Still for that read-out and setting: then `CC1CCCN(C(=O)c2cc(N)n3nc(-c4ccc(Br)o4)nc3c2)C1` (stereo not shown) [Example 295, [5-Amino-2-(5-bromo-furan-2-yl)-[1,2,4]triazolo[1,5-a]pyridin-7-yl]-(3,-methyl-piperidin-1-yl)-methanone], with 130 nM; and `Nc1cc(C(=O)N2CCSCC2)cc2nc(-c3ccc(Br)o3)nn12` [Example 297, [5-Amino-2-(5-bromo-furan-2-yl)-[1,2,4]triazolo[1,5-a]pyridin-7-yl]-thiomorpholin-4-yl-methanone], with 253 nM; and `CN(CCc1ccccc1)C(=O)c1cc(N)n2nc(-c3ccc(Br)o3)nc2c1` [Example 306, 5-Amino-2-(5-bromo-furan-2-yl)-[1,2,4]triazolo[1,5-a]pyridine-7-carboxylic acid methyl-phenethyl-amide], with 87.8 nM.
`CC1CCCCN1C(=O)c1cc(N)n2nc(-c3ccc(Br)o3)nc2c1` (stereo not shown) [Example 336, [5-Amino-2-(5-bromo-furan-2-yl)-[1,2,4]triazolo[1,5-a]pyridin-7-yl]-(2-methyl-piperidin-1-yl)-methanone] showed an inhibition constant Ki at HA1 adenosine receptor (setting [2]) of 65.7 nM.
The same measure, in the same setting: then `CCN(CCc1ccccn1)C(=O)c1cc(N)n2nc(-c3ccc(Br)o3)nc2c1` [Example 352, 5-Amino-2-(5-bromo-furan-2-yl)-[1,2,4]triazolo[1,5-a]pyridine-7-carboxylic acid ethyl-(2-pyridin-2-yl-ethyl)-amide], with 144 nM.
Turning to `CCN(CC)C(=O)C1CCCN(C(=O)c2cc(N)n3nc(-c4ccc(Br)o4)nc3c2)C1` (stereo not shown) [Example 356, 1-[5-Amino-2-(5-bromo-furan-2-yl)-[1,2,4]triazolo[1,5-a]pyridin-7-carbonyl]-piperidine-3-carboxylic acid diethylamide], at HA1 adenosine receptor (setting [2]), the affinity, expressed as Ki, was 1060 nM.
For `CN(C)C(=O)CN(C)C(=O)c1cc(N)n2nc(-c3ccc(Br)o3)nc2c1` [Example 384, 5-Amino-2-(5-bromo-furan-2-yl)-[1,2,4]triazolo[1,5-a]pyridine-7-carboxylic acid dimethylcarbamoylmethyl-methyl-amide], the Ki at HA1 adenosine receptor worked out at 711 nM.
In turn, `COC[C@@H]1CCCN1C(=O)c1cc(N)n2nc(-c3ccc(Br)o3)nc2c1` [Example 385, [5-Amino-2-(5-bromo-furan-2-yl)-[1,2,4]triazolo[1,5-a]pyridin-7-yl]-(S-2-methoxymethyl-pyrrolidin-1-yl)-methanone] returned a Ki at HA1 adenosine receptor of 616 nM.
The same measure, in the same setting: then `COC[C@H]1CCCN1C(=O)c1cc(N)n2nc(-c3ccc(Br)o3)nc2c1` [Example 386, [5-Amino-2-(5-bromo-furan-2-yl)-[1,2,4]triazolo[1,5-a]pyridin-7-yl]-(R-2-methoxymethyl-pyrrolidin-1-yl)-methanone], with 292 nM.
Consider `Nc1cc(C(=O)N2CCCC2)cc2nc(-c3ccccn3)nn12` [Example 410, (5-Amino-2-pyridin-2-yl-[1,2,4]triazolo[1,5-a]pyridin-7-yl)-pyrrolidin-1-yl-methanone], for which the Ki at HA1 adenosine receptor amounted to 1450 nM.
With `CCN(CC)C(=O)C1CCCN(C(=O)c2cc(N)n3nc(-c4ccccn4)nc3c2)C1` (stereo not shown) [Example 434, 1-(5-Amino-2-pyridin-2-yl-[1,2,4]triazolo[1,5-a]pyridine-7-carbonyl)-piperidine-3-carboxylic acid diethylamide], in assay [1] (ratio KiHA1 divided by KiHA2A), the “selectivity (A1/A2a)” value was 52.6. Besides, the Ki in assay [1] (recombinant human A2A in CHO cell membranes, [3H]-SCH-58261, Cheng-Prussoff, read-out: Ki hA2A) is 118 nM.
